# Data taken from patent US9045563B2, “CXC chemokine receptor 4 (CXCR4) antagonistic polypeptide” (priority 2007, dated 2015).
# Like-named read-outs stand apart in the source and are kept apart here. Ends that are not written are not given here.
# Columns and labels:
# [1] = test system: X4 tropic HIV-1 NL4-3; settings: TZM-bl cells; for IC50: read-out: IC50 ± SEM, X4 tropic HIV-1 NL4-3, two days post infection, synthetic peptides
# Protocol: HIV inhibition test were performed by seeding 4000 P4-R5 MAGI cells (P. Charneau et al., J. Mol. Biol. 241: 651, 1994) in 100 μl of DMEM (10% FCS, 100 U/ml penicillin G, and 100 μg/ml streptomycin sulfate). P4-R5 cells are stably transfected with an LTR-lacZ cassette and upon successful infection by HIV-1 will express—galactosidase in a Tat-dependent manner, which can be detected in a chemiluminescence test. On the following day, aliquots of the fractions were added. Therefor the lyophilized fractions were resuspended in 80 μl of DMEM, and 25 μl each thereof was pipetted to P4-R5 cells, incubated at 37° C. for 1 hour and subsequently infected with HIV-1 NL4—3 (1 ng of p24 antigen). Virus stocks were obtained by transient infection of 293T cells with proviral DNA by the calcium phosphate method (CalPhos™ Mammalian Transfection Kit, Clontech). Virus stocks were harvested 48 hours post transfection, filtrated and used for infection. Three days post infection, β-galactosidase activity in infected P4-R5 cells was detected using GalScreen assay (TROPIX) as recommended by the manufacturer. Briefly, supernatant was removed, 40 μl of a 1:1 dilution of PBS/GalScreen+substrate was added, followed by incubation at room temperature for 30 min. Then 30 μl of the lysates were transferred into 96 well lumiplates. Subsequently, the lumines-cence was detected as relative light units per second in a luminometer (Berthold, ORION). From all measurements, the mean β-galactosidase background activity of non-infected control cells was subtracted. % infection values for each infection were calculated relative to no peptide containing controls (100%). The enzyme activities in measurements without ALB408-423 were set at 100%, and all other values were based thereon. The final purification (7th step) was examined under exactly the same conditions in TZM-bl cells (X. Wei et al., Antimicrob. Agents Chemother. 46: 1896, 2002).
# 1.6 mg of fraction 31 from the 7th step in Example 1 was dissolved in 160 μl of DMEM. Subsequently, 10 μl of serial dilutions of fraction 31 containing ALB408-423 were added to 60 μl of TZM-bl cells (60 μl) and infected with 1 ng of p24 antigen HIV-1 NL4—3 in a total volume of 100 μl. Three days later, infection rates were determined in a GalScreen assay (see Example 1).
# (§1) 5000 TZM-bl cells were seeded in 100 μl of DMEM (10% FCS, 100 U/ml of penicillin G and 100 μg/ml of streptomycin sulfate). ALB408-423 was dissolved in PBS (10 mg/ml). One day later, 20 μl serial dilutions of ALB408-423 in PBS were added to cells and cells were subsequently infected with 0.5 ng of p24 antigen HIV-1 in a total volume of 200 μl. HIV-1 molecular clones differing in coreceptor tropism were used and generated as described (Papkalla et al., J. Virol. 76: 8455-9, 2002).
# Table 1. Antiviral activity of various ALB fragments against X4 tropic HIV-1 NL4-3 infection. TZM-bl cells containing serial dilutions of synthetic peptides were infected with HIV-1 NL4-3 and infection rates were determined and calculated as described in example 1 and 2 at two days post infection. IC50 values were determined using the GraphPad Prism software package.
# Various ALB408-423 derivatives containing N or C terminal deletions or amino acid substitutions (Table 1) were chemically synthesized and lyophilized peptides were dissolved in PBS. The antiviral activity was analyzed in TZM-bl cells using X4 tropic HIV-1 NL4-3 as described (example 4).
# [2] = biological target: T1, CXCR4 (Homo sapiens, UniProt P61073); parameters: expressed in transfected cells; settings: read-out: dissociation constant of fluorescent CXCL12 for the CXCR4 receptor; cited from earlier work
# T1 sequence (P61073 whole entry): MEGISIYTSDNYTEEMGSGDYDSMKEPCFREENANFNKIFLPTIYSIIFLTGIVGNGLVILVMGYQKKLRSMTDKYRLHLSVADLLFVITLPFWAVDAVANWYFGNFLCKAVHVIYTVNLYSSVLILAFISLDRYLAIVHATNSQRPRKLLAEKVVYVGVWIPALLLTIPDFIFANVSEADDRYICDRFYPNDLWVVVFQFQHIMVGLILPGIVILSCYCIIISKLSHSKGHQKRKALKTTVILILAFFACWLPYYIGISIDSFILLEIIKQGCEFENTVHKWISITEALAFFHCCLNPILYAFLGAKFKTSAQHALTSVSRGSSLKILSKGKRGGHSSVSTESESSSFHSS
# [3] = biological target: T1, CXCR4; experiment: Fluorescent binding assay on whole living cells, CXCL12-TR competition on HEK293 EGFP-hCXCR4; parameters: expressed in transfected cells
# Protocol: FIG. 17. CXCR4 antagonistic activities of ALB derivatives. […] CXCR4 or CCR5 expressing HEK293 cells were treated with CXCR4 agonist CXCL12 (10 nM) or CCR5 agonist CCL5 (20 nM), respectively, in the absence (no ALB) or presence of indicated ALB derivatives (50 μM). Calcium responses were recorded as described. Data shown are mean values±standard deviation derived from duplicates relative to peak calcium responses after treatment with agonists only (100%). […] CXCR4 expressing HEK293 cells were treated with Texas Red labeled CXCL12 (CXCL12-Tr) in the presence or absence of ALB peptides. Real-time fluorescence monitoring of ligand-receptor interactions was carried out as described.
# [4] = test system: X4 tropic HIV-1 variants NL4-3, P51-Sc, P59-S/27 and P34-S; settings: TZM-bl cells, 100 μM peptide
# Protocol: as §1
# (§2) FIG. 3: Chemically synthesized ALB408-423 specifically blocks X4 tropic HIV-1 infection. TZM-bl cells containing indicated dilutions of peptide were infected with HIV-1 variants differing in their coreceptor tropism. 3 days later Gal Screen assay was used to measure infection rates. […] B) Infection rates in the presence of 500 μg/ml ALB408-423 showing that the peptide specifically blocks X4 but not R5 tropic HIV-1 infection. Data shown are mean values±standard deviation derived from triplicate infections relative to PBS containing cells (100% infection).
# (§3) After 3 days, infection was detected using GalScreen assay (TROPIX) (example 1). […] In contrast, CCR5 tropic HIV-1 variants were not inhibited even in the presence of very high doses of ALB408-423 (500 μg/ml) (FIG. 3B). Due to the specific inhibition of the infection caused by X4-tropic HIV-1 variants, it is to be assumed that ALB408-423 interacts with the chemokine receptor CXCR4.
# (§4) Virus stocks were first titrated on TZM-bl cells. Then TZM-bl cells containing 100 μM of peptides were infected with infectivity normalized amounts of X4, dualtropic (X4/R5) or R5 tropic HIV-1.
# (§5) FIG. 10. ALB408-423 and truncated ALB derivatives specifically block X4 tropic HIV-1 infection. TZM-bl cells either containing PBS or 100 μM of indicated peptides were infected with normalized infectivities of X4, dualtropic or R5 tropic HIV-1 clones. Infection rates were measured 2 days post infection using the GalScreen assay. Shown are mean values (% of PBS treated control)±standard deviations derived from triplicate measurements.
# [5] = test system: CCR5 tropic HIV-1 variants; experiment: Infection of TZM-bl cells by R5 tropic HIV-1 variants, GalScreen; assay type: cell-based; settings: 100 μM peptide
# Protocol: as §1, §2, §3, §4, §5
# [6] = test system: dual tropic (CXCR4 and CCR5 using) variant 92ht593.1; experiment: Infection of TZM-bl cells by dual tropic HIV-1, GalScreen; assay type: cell-based; settings: 100 μM peptide
# Protocol: as §1, §2, §3, §4, §5
# [7] = test system: X4 tropic HIV-1 NL4-3; experiment: X4 tropic HIV-1 infection and replication in PBMC, p24 antigen ELISA; assay type: cell-based; settings: 100 μM peptide, day 6 post infection
# Protocol: To analyze the effect of ALB408-423 and derivatives thereof in relevant primary cells, peripheral blood mononuclear cells were isolated from Buffy coat derived from the DRK-Blutspendedienst Baden-Württemberg-Hessen using Ficoll density centrifugation. 1×10^6 PBMC per ml were stimulated with 1 μg/ml phytohemagglutinine (PHA, Oxoid, #3085280) and 10 ng/ml Interleukin 2 (IL-2, Strathmann, #9511192) for three days. Thereafter cells were pelleted and resuspended in IL-2 containing medium. 1.5×10^5 PBMC (250 μl) were seeded in 96 well dishes, peptides were added and cells were infected with […] p24 antigen of X4 tropic HIV-1 NL4-3. Supernatants containing progeny virus were taken at day 1, 3 and 6 post infection. Virus production was measured by p24 antigen ELISA (SAIC-Frederick, Inc [AIDS & Cancer virus program]). […] In the presence of 20 μM peptides virus replication was severely impaired.
# FIG. 11. ALB408-423 and derivatives inhibit X4 tropic HIV-1 infection of peripheral blood mononuclear cells (PBMC). Cells were incubated with indicated concentrations of ALB408-423 or truncated variants and infected with X4 tropic HIV-1. Supernatants obtained after 6 days were analyzed by p24 ELISA. Shown are mean p24 antigen values (ng/ml) derived from triplicate infections±standard deviation.
Substance,IC50 [1] [µM],"antiviral activity against X4 tropic HIV-1 NL4-3 (words, SAR study) [1]",other results
"LVRATKKV [ALB-Y411A, LVRATKKV]",91,–,–
"LLVRYTKKVPQVS [ALB407-419, LLVRYTKKVPQVS]",–,reduced its antiviral activity,–
"LVRYTKK [ALB408-414, LVRYTKK]",–,remained active,–
"ALB408-416: SEQ ID No 15; C terminal truncation of ALB408-423, sequence not printed in Table 1 (LVRYTKKVP; listed as Homo sapiens)",–,remained active,–
"LVRYTKKVPQVSTPT [ALB408-422, LVRYTKKVPQVSTPT]",–,remained active,–
"YTKKVPQVSTPTL [ALB411-423, YTKKVPQVSTPTL]",–,severely impaired or abrogated antiviral activity,–
"LVRYTKKVPQV [ALB408-418, LVRYTKKVPQV]",–,remained active,–
"KVPQVSTPTL [ALB414-423, KVPQVSTPTL]",–,severely impaired or abrogated antiviral activity,–
"fluorescent CXCL12: synthesized human chemokine CXCL12 labeled with Texas Red, fluorescent CXCR4 ligand",–,–,Kd [2]: 0.055 ± 0.015 µM
"FVRYTKKVPQVS [ALB408F-419, FVRYTKKVPQVS]",–,inactive peptides,–
"LVAYTKKV [ALB-R410A, LVAYTKKV]",> 1000,–,–
"LARYTKKV [ALB-V409A, LARYTKKV]",32.9,–,–
"LVRYTK [ALB408-413, LVRYTK]",> 50,–,Kd [3]: > 200 µM
"LVRYTAKV [ALB-K413A, LVRYTAKV]",56,–,–
"AVRYTKKVPQVS [ALB408A-419, AVRYTKKVPQVS]",–,inactive peptides,–
"LVRYTKKVPQVSTP [ALB408-421, LVRYTKKVPQVSTP]",–,remained active,–
IVRYTKKVPQVS [ALB408I-419],1.55 ± 1.2,–,"block of infection by X4 tropic HIV-1 clones (NL4-3, P51-Sc, P34-s) [4]: almost completely; effect on R5 tropic HIV-1 infection [5]: no effect; inhibition of dualtropic HIV-1 clone 92ht593.1 [6]: only moderately; p24 antigen in supernatants [7]: No p24 antigen could be detected"
"GVRYTKKVPQVS [ALB408G-419, GVRYTKKVPQVS]",–,inactive peptides,–
"VPQVSTPTL [ALB415-423, VPQVSTPTL]",> 100,severely impaired or abrogated antiviral activity,–
"LVRYTKKVPQVST [ALB408-420, LVRYTKKVPQVST]",–,remained active,–
"RYTKKVPQVSTPTL [ALB410-423, RYTKKVPQVSTPTL]",> 100,severely impaired or abrogated antiviral activity,–
"LVRYTKKV [ALB408-415, LVRYTKKV]",17.4 ± 6.5,remained active,–
"LVRYTKAV [ALB-K414A, LVRYTKAV]",31,–,–
"KKVPQVSTPTL [ALB413-423, KKVPQVSTPTL]",> 100,severely impaired or abrogated antiviral activity,–
"TKKVPQVSTPTL [ALB412-423, TKKVPQVSTPTL]",> 100,severely impaired or abrogated antiviral activity,–
"LVRYTKKA [ALB-V415A, LVRYTKKA]",33,–,–
"LVRYTKKVPQ [ALB408-417, LVRYTKKVPQ]",19.9 ± 4.1,remained active,–
"LVRYTKKVPQVS [ALB408-419, LVRYTKKVPQVS]",4.4 ± 1,remained active,"block of infection by X4 tropic HIV-1 clones (NL4-3, P51-Sc, P34-s) [4]: almost completely; effect on R5 tropic HIV-1 infection [5]: no effect; inhibition of dualtropic HIV-1 clone 92ht593.1 [6]: only moderately; p24 antigen in supernatants [7]: only marginal p24 levels"
"LVRYAKKV [ALB-T412A, LVRYAKKV]",11.2 ± 0.1,–,"block of infection by X4 tropic HIV-1 clones (NL4-3, P51-Sc, P34-s) [4]: almost completely; effect on R5 tropic HIV-1 infection [5]: no effect; inhibition of dualtropic HIV-1 clone 92ht593.1 [6]: only moderately"
